# Data taken from PubChem BioAssay (NCI).
#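 Exposure lasted 48 hours, with cells grown in 96-well plates and compounds tested at five concentrations. TGI is the concentration that stops growth completely.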
# Assays:
# Assay in all cases: NCI-60 cell line screen, 48 h
# [1] = test system: RXF 393 renal
# [2] = test system: MDA-MB-435
# [3] = test system: NCI-H460 lung
# [4] = test system: HL-60(TB) leukemia
# [5] = test system: 786-0 renal
# [6] = test system: DMS 114 small cell lung
# [7] = test system: DLD-1 colon
# [8] = test system: DMS 273 small cell lung
# [9] = test system: RPMI-8226 leukemia
# [10] = test system: OVCAR-4 ovarian
# [11] = test system: XF 498 CNS
# [12] = test system: SK-MEL-5 melanoma
# [13] = test system: A498 renal
# [14] = test system: SW-620 colon
# [15] = test system: SNB-75 CNS
# [16] = test system: NCI-H522 lung
# [17] = test system: OVCAR-8 ovarian
# [18] = test system: HOP-18 NSCLC
# [19] = test system: MDA-MB-231 breast
# [20] = test system: SNB-78 CNS
# [21] = test system: PC-3 prostate
# [22] = test system: SF-268 CNS
# [23] = test system: UO-31 renal
# [24] = test system: K-562 leukemia
# [25] = test system: LOX IMVI melanoma
# [26] = test system: SN12C renal
# [27] = test system: TK-10 renal
# [28] = test system: UACC-62 melanoma
# [29] = test system: SK-MEL-2 melanoma
# [30] = test system: HCT-15 colon
# [31] = test system: CAKI-1 renal
# [32] = test system: U251 CNS
# [33] = test system: IGROV1 ovarian
# [34] = test system: MOLT-4 leukemia
# [35] = test system: OVCAR-5 ovarian
# [36] = test system: NCI-H226 lung
# [37] = test system: MDA-N
# [38] = test system: MALME-3M melanoma
# [39] = test system: HOP-92 NSCLC
# [40] = test system: HS 578T breast
# [41] = test system: NCI-H23 lung
# [42] = test system: CCRF-CEM leukemia
# [43] = test system: SNB-19 CNS
# [44] = test system: SK-MEL-28 melanoma
# [45] = test system: A549 NSCLC
# [46] = test system: SR leukemia
# [47] = test system: SF-295 CNS
# [48] = test system: BT-549 breast
# [49] = test system: ACHN renal
# [50] = test system: HCC-2998 colon
# [51] = test system: M14 melanoma
# [52] = test system: T-47D breast
# [53] = test system: KM12 colon
# [54] = test system: OVCAR-3 ovarian
# [55] = test system: KM20L2 colon
# [56] = test system: M19-MEL melanoma
# [57] = test system: COLO 205 colon
# [58] = test system: HOP-62 NSCLC
# [59] = test system: DU-145 prostate
# [60] = test system: SF-539 CNS
# [61] = test system: NCI/ADR-RES ovarian
# [62] = test system: UACC-257 melanoma
# [63] = test system: SK-OV-3 ovarian
# [64] = test system: HT29 colon
# [65] = test system: HCT-116 colon
# [66] = test system: MCF7 breast
# [67] = test system: EKVX NSCLC
# [68] = test system: LXFL 529 NSCLC
smiles,measurement,setting,value
O=C(O)c1cc2c(s1)C(=O)c1sccc1C2=O,TGI,[1],16.9 µM
same,TGI,[2],1.68 µM
same,TGI,[3],33 µM
same,TGI,[4],19 µM
same,TGI,[5],18.1 µM
same,TGI,[6],11.2 µM
same,TGI,[7],27.7 µM
same,TGI,[8],22.8 µM
same,TGI,[9],41.7 µM
same,TGI,[10],16.1 µM
same,TGI,[11],35.4 µM
same,TGI,[12],3.32 µM
same,TGI,[13],31.2 µM
same,TGI,[14],5.28 µM
same,TGI,[15],3.37 µM
same,TGI,[16],8.58 µM
same,TGI,[17],14.6 µM
same,TGI,[18],17.7 µM
same,TGI,[19],38.4 µM
same,TGI,[20],0.909 µM
same,TGI,[21],43.5 µM
same,TGI,[22],16.4 µM
same,TGI,[23],16 µM
same,TGI,[24],15.2 µM
same,TGI,[25],3.04 µM
same,TGI,[26],6.85 µM
same,TGI,[27],36 µM
same,TGI,[28],4.56 µM
same,TGI,[29],6.03 µM
same,TGI,[30],11.9 µM
same,TGI,[31],31.8 µM
same,TGI,[32],15.6 µM
same,TGI,[33],30.9 µM
same,TGI,[34],28.6 µM
same,TGI,[35],23.4 µM
same,TGI,[36],37.1 µM
same,TGI,[37],1.68 µM
same,TGI,[38],0.806 µM
same,TGI,[39],30.1 µM
same,TGI,[40],5.91 µM
same,TGI,[41],4.71 µM
same,TGI,[42],33.1 µM
same,TGI,[43],17.1 µM
same,TGI,[44],3.45 µM
same,TGI,[45],8.39 µM
same,TGI,[46],8.38 µM
same,TGI,[47],5.25 µM
same,TGI,[48],3.78 µM
same,TGI,[49],25.1 µM
same,TGI,[50],33.6 µM
same,TGI,[51],2.91 µM
same,TGI,[52],17.3 µM
same,TGI,[53],21.1 µM
same,TGI,[54],15.6 µM
same,TGI,[55],35.3 µM
same,TGI,[56],2.49 µM
same,TGI,[57],32.7 µM
same,TGI,[58],11.6 µM
same,TGI,[59],5.85 µM
same,TGI,[60],3.85 µM
same,TGI,[61],18.5 µM
same,TGI,[62],6.27 µM
same,TGI,[63],41.4 µM
same,TGI,[64],19 µM
same,TGI,[65],4.81 µM
same,TGI,[66],7.91 µM
same,TGI,[67],30.5 µM
COc1ccc(CSc2nc3ccccc3nc2-c2cccs2)cc1,TGI,[4],> 100 µM
same,TGI,[5],> 100 µM
same,TGI,[6],> 100 µM
same,TGI,[8],> 100 µM
same,TGI,[9],> 100 µM
same,TGI,[10],> 100 µM
same,TGI,[11],> 100 µM
same,TGI,[15],> 100 µM
same,TGI,[17],> 100 µM
same,TGI,[18],> 100 µM
same,TGI,[20],> 100 µM
same,TGI,[22],> 100 µM
same,TGI,[23],> 100 µM
same,TGI,[24],> 100 µM
same,TGI,[26],> 100 µM
same,TGI,[32],> 100 µM
same,TGI,[34],> 100 µM
same,TGI,[38],> 100 µM
same,TGI,[39],> 100 µM
same,TGI,[41],> 100 µM
same,TGI,[42],76.3 µM
same,TGI,[43],> 100 µM
same,TGI,[44],> 100 µM
same,TGI,[45],> 100 µM
same,TGI,[47],> 100 µM
same,TGI,[49],> 100 µM
same,TGI,[51],> 100 µM
same,TGI,[54],> 100 µM
same,TGI,[57],> 100 µM
same,TGI,[60],> 100 µM
same,TGI,[62],> 100 µM
same,TGI,[63],> 100 µM
same,TGI,[64],> 100 µM
same,TGI,[65],> 100 µM
same,TGI,[67],> 100 µM
CC(=O)c1cccc(NCn2nnc3ccccc32)c1,TGI,[1],> 100 µM
same,TGI,[3],> 100 µM
same,TGI,[4],> 100 µM
same,TGI,[5],> 100 µM
same,TGI,[6],> 100 µM
same,TGI,[7],> 100 µM
same,TGI,[8],> 100 µM
same,TGI,[9],> 100 µM
same,TGI,[10],> 100 µM
same,TGI,[11],> 100 µM
same,TGI,[13],> 100 µM
same,TGI,[14],> 100 µM
same,TGI,[15],> 100 µM
same,TGI,[16],> 100 µM
same,TGI,[17],> 100 µM
same,TGI,[18],> 100 µM
same,TGI,[22],> 100 µM
same,TGI,[68],> 100 µM
same,TGI,[23],> 100 µM
same,TGI,[24],> 100 µM
same,TGI,[25],> 100 µM
same,TGI,[26],> 100 µM
same,TGI,[27],> 100 µM
same,TGI,[28],> 100 µM
same,TGI,[29],> 100 µM
same,TGI,[30],> 100 µM
same,TGI,[32],> 100 µM
same,TGI,[33],> 100 µM
same,TGI,[34],> 100 µM
same,TGI,[36],> 100 µM
same,TGI,[38],> 100 µM
same,TGI,[39],> 100 µM
same,TGI,[41],> 100 µM
same,TGI,[42],> 100 µM
same,TGI,[43],> 100 µM
same,TGI,[44],> 100 µM
same,TGI,[45],> 100 µM
same,TGI,[46],> 100 µM
same,TGI,[47],> 100 µM
same,TGI,[49],> 100 µM
same,TGI,[50],> 100 µM
same,TGI,[51],> 100 µM
same,TGI,[53],> 100 µM
same,TGI,[54],> 100 µM
same,TGI,[55],> 100 µM
same,TGI,[56],> 100 µM
same,TGI,[57],> 100 µM
same,TGI,[58],> 100 µM
same,TGI,[60],> 100 µM
same,TGI,[62],> 100 µM
same,TGI,[63],> 100 µM
same,TGI,[64],> 100 µM
same,TGI,[65],> 100 µM
same,TGI,[67],> 100 µM
[O-]c1on[n+]2c1c(Nc1ccc(Cl)cc1)nc1ccccc12,TGI,[1],> 100 µM
same,TGI,[3],> 100 µM
same,TGI,[4],> 100 µM
same,TGI,[5],> 100 µM
same,TGI,[6],> 100 µM
same,TGI,[7],> 100 µM
same,TGI,[8],> 100 µM
same,TGI,[9],> 100 µM
same,TGI,[10],> 100 µM
same,TGI,[11],> 100 µM
same,TGI,[12],> 100 µM
same,TGI,[13],> 100 µM
same,TGI,[14],> 100 µM
same,TGI,[15],> 100 µM
same,TGI,[16],> 100 µM
same,TGI,[17],> 100 µM
same,TGI,[20],> 100 µM
same,TGI,[22],> 100 µM
same,TGI,[68],> 100 µM
same,TGI,[23],> 100 µM
same,TGI,[24],> 100 µM
same,TGI,[25],> 100 µM
same,TGI,[26],> 100 µM
same,TGI,[27],> 100 µM
same,TGI,[28],> 100 µM
same,TGI,[32],> 100 µM
same,TGI,[33],> 100 µM
same,TGI,[34],> 100 µM
same,TGI,[35],> 100 µM
same,TGI,[39],> 100 µM
same,TGI,[41],> 100 µM
same,TGI,[42],> 100 µM
same,TGI,[43],> 100 µM
same,TGI,[44],> 100 µM
same,TGI,[45],> 100 µM
same,TGI,[46],> 100 µM
same,TGI,[47],> 100 µM
same,TGI,[49],> 100 µM
same,TGI,[50],> 100 µM
same,TGI,[51],> 100 µM
same,TGI,[53],> 100 µM
same,TGI,[54],> 100 µM
same,TGI,[55],> 100 µM
same,TGI,[56],> 100 µM
same,TGI,[57],> 100 µM
same,TGI,[60],> 100 µM
same,TGI,[62],> 100 µM
same,TGI,[63],> 100 µM
same,TGI,[64],> 100 µM
same,TGI,[65],> 100 µM
same,TGI,[67],> 100 µM
